Assay [1] concerns Human T lymphocytic leukemia cell line (Jurkat). Nature of the assay: Inhibition of Jurkat cell proliferation (CellTiter luminescent viability). Type of assay: cell-based. Particulars: 96 hours; for inhibition at 0.01 µM / inhibition at 0.5 µM: Homo sapiens, Table IF3, AR inhibitor-based; for inhibition at 0.01 µM: 10 nM, read-out: Inhibition Rate at 10 nM (%); for inhibition at 0.5 µM: 500 nM, read-out: Inhibition Rate at 500 nM (%); for IC50: Table IA1, IRAK4 inhibitor-based, read-out: Inhibitory activity (IC50, nM) on tumor cell proliferation, Jurkat.

Assay [2] has as its system Human acute lymphocytic leukemia T lymphocytes cell line (CCRF-CEM). Nature of the assay: Inhibition of CCRF-CEM cell proliferation (CellTiter luminescent viability). As to conditions: Homo sapiens, 96 h, Table IF2, AR inhibitor-based; for inhibition at 0.01 µM: 10 nM, read-out: Inhibition Rate at 10 nM (%); for inhibition at 0.5 µM: 500 nM, read-out: Inhibition Rate at 500 nM (%). Type of assay: cell-based.

Assay [3] concerns Human large cell immunoblastic lymphoma cell line SR. As to the kind of experiment: Inhibition of SR cell proliferation (CellTiter luminescent viability). Type of assay: cell-based. As to conditions: Table IA1, IRAK4 inhibitor-based, 96 hours, read-out: Inhibitory activity (IC50, nM) on tumor cell proliferation, SR. In short, it runs like this:
(§1)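 Cells are seeded in 96-well plates, cultured at 37 °C, 5% CO2, and treated next day with 5-fold serial compound dilutions (stock series from 2000 μM; 0.5 μL into 100 μL medium). Viability is read by CellTiter-Meiluncell luminescence after the set exposure, and IC50 is taken from growth-inhibition curves.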

Assay [4] relates to Human gastric cancer cell line MGC803. As to the kind of experiment: Inhibition of MGC803 tumor cell proliferation (CellTiter luminescent viability). The assay is classed as cell-based. Particulars: Table IA1, IRAK4 inhibitor-based compounds; MGC803, 96 hours; read-out: Inhibitory activity (IC50, nM) on tumor cell proliferation, MGC803. As for the experimental part: (§2) The tumor cells used herein were cultured in a cell culture medium listed in table 3 at 37 °C in an incubator with 5% CO2. Prior to experimentation, all cell lines used were correctly identified by STR profiling, and tested negative for mycoplasma contamination using a mycoplasma detection kit through routine screenings.
(§3) The IC50 values of the compounds of the present disclosure (including the compounds in Table 1, Table 2, and Examples 1-468) were determined using the CellTiter-Meiluncell Luminescent Cell Viability Assay Kit from Dalian Meilun Biotech Co., Ltd. The detailed procedure is as follows: Tumor cells were seeded in 96-well cell culture plates at the densities specified in Table 4. On the following day, the test compounds of the present disclosure were subjected to serial dilution. The dilution can be performed according to one of the following two methods: • (1) The first dilution method: The test compounds of the present disclosure (including the compounds in Table 1, Table 2, and Examples 1-468) were subjected to 5-fold serial dilutions starting from a highest concentration of 2000 μM, resulting in a total of 9 concentrations from high to low (2000, 400, 80, 16, 3.2, 0.64, 0.128, 0.0256, 0.00512 μM). Subsequently, 0.5 μL of the test compound dilution was transferred into the 96-well plate containing the cells, with each well containing 100 μL of cell culture medium. […] Into the 96-well plate, the diluted test compounds and corresponding detection reagents were added, resulting in final test compound concentrations of 500 nM and 10 nM, respectively. The experimental procedure is described below using the diluted 2 μM test compound as an example.
(§4) 0.5 μL of the aforementioned diluted compound of the present disclosure (including the compounds in Table 1, Table 2, and Examples 1-468) was added to the seeded cells in 100 μL of medium, yielding a final test compound concentration of 10 nM. After the cells were treated with the compounds of the present disclosure for a specified period, the cell viability assay reagent was added to the culture medium according to the kit's instructions to determine cell viability. […] All controls were treated using the same procedure as the compounds of the present disclosure. The growth inhibition curves for the compounds of the present disclosure were plotted using Prism GraphPad software, and the IC50 values were calculated therefrom.

A further assay relates to JEKO-1. As to the kind of experiment: Inhibition of JEKO-1 cell proliferation (CellTiter luminescent viability). The assay is classed as cell-based, human. Particulars: Table IA1, IRAK4 inhibitor-based; JEKO-1, 96 hours; read-out: Inhibitory activity (IC50, nM) on tumor cell proliferation, JEKO-1. As for the experimental part: as §2, §3, §4
In assay [5] the test system is Human myeloid monocytic leukemia cell line (MV-4-11). Nature of the assay: Inhibition of MV-4-11 cell proliferation (CellTiter luminescent viability). Type of assay: cell-based. As to conditions: Homo sapiens, MV4-11, Table IA3, IRAK4 inhibitor-based, 96 hours; for inhibition at 0.01 µM: MV-4-11, 10 nM, read-out: Inhibition Rate at 10 nM (%); for inhibition at 0.5 µM: MV-4-11, 500 nM, read-out: Inhibition Rate at 500 nM (%). In short, it runs like this:
as §1

Assay [6] deals with Human Acute T Lymphoblastic Leukemia Cells (Molt-4). As to the kind of experiment: Inhibition of Molt-4 cell proliferation (CellTiter luminescent viability). Type of assay: cell-based. As to conditions: Homo sapiens, MOLT-4, 96 h, Table IA2, IRAK4 inhibitor-based, 96 hours; for inhibition at 0.01 µM: Molt-4, 10 nM, read-out: Inhibition Rate at 10 nM (%); for inhibition at 0.5 µM: Molt-4, 500 nM, read-out: Inhibition Rate at 500 nM (%).

The values below come from patent publication US20260364184A1, “COMPOUND BASED ON OXOISOINDOLINYL-SUBSTITUTED TETRAHYDROPYRIMIDINE-DIONE AND USE THEREOF” (GLUETACS THERAPEUTICS (SHANGHAI) CO., LTD., priority 2023, published 2026).

What is called inhibition is the change of the read-out against control, counted positive when it falls.

As to `N#Cc1ccc(O[C@H]2CC[C@H](NC(=O)c3ccc(N4CCC(CN5CC6CCC5CN6c5ccc6c(c5)C(=O)N(N5CCC(=O)NC5=O)C6=O)CC4)nn3)CC2)cc1Cl` (stereo partly drawn) [GT-05832, N-((1r,4r)-4-(3-chloro-4-cyanophenoxy)cyclohexyl)-6-(4-((5-(2-(2,4-dioxotetrahydropyrimidin-1(2H)-yl)-1,3-dioxoisoindolin-5-yl)-2,5-diazabicyclo[2.2.2]octan-2-yl)methyl)piperidin-1-yl)pyridazine-3-carboxamide], in assay [1], the inhibition at 0.01 µM was in the range of 0 to 5% and the inhibition at 0.5 µM lay within 20 to 30%. Further, in assay [2], the inhibition at 0.01 µM was -5 to 0% and the inhibition at 0.5 µM is 30 to 40%.

With `CC1(C)[C@H](NC(=O)c2ccc(N3CCC(CN4CC5CCC4CN5c4ccc5c(c4)C(=O)N(N4CCC(=O)NC4=O)C5=O)CC3)nc2)C(C)(C)[C@H]1Oc1ccc(C#N)c(Cl)c1` (stereo partly drawn) [GT-05834, N-((1r,3r)-3-(3-chloro-4-cyanophenoxy)-2,2,4,4-tetramethylcyclobutyl)-6-(4-((5-(2-(2,4-dioxotetrahydropyrimidin-1(2H)-yl)-1,3-dioxoisoindolin-5-yl)-2,5-diazabicyclo[2.2.2]octan-2-yl)methyl)piperidin-1-yl)nicotinamide], in assay [1], the inhibition at 0.01 µM lay within 15 to 20% and the inhibition at 0.5 µM was in the range of 40 to 60%. In assay [2], the inhibition at 0.01 µM is 10 to 15% and the inhibition at 0.5 µM fell in the range of 40 to 60%.

Turning to `O=C1CCN(N2Cc3cc(CN4CCC(n5cc(NC(=O)c6coc(-c7ccnc(NCC8CC8)c7)n6)c(C(F)F)n5)CC4)ccc3C2=O)C(=O)N1` [GT-04951, 2-(2-((cyclopropylmethyl)amino)pyridin-4-yl)-N-(3-(difluoromethyl)-1-(1-((2-(2,4-dioxotetrahydropyrimidin-1(2H)-yl)-1-oxoisoindolin-5-yl)methyl)piperidin-4-yl)-1H-pyrazol-4-yl) oxazole-4-carboxamide], the IC50 in assay [1] fell in the range of 100 to 300 nM; in assay [3], 500 to 1000 nM; in assay [4], 100 to 300 nM; in the assay on JEKO-1 it was 100 to 300 nM.

Regarding `O=C1CCN(N2C(=O)c3cccc(N4CCC(CN5CCC(n6cc(NC(=O)c7cnn8ccc(N9C[C@H]%10C[C@@H]9CO%10)nc78)c(C(F)F)n6)CC5)CC4)c3C2=O)C(=O)N1` [GT-05285, 5-((1R,4R)-2-oxa-5-azabicyclo[2.2.1]heptan-5-yl)-N-(3-(difluoromethyl)-1-(1-((1-(2-(2,4-dioxotetrahydropyrimidin-1(2H)-yl)-1,3-dioxoisoindolin-4-yl)piperidin-4-yl)methyl)piperidin-4-yl)-1H-pyrazol-4-yl)pyrazolo[1,5-a]pyrimidine-3-carboxamide], in assay [5], the inhibition at 0.01 µM fell in the range of 45 to 50% and the inhibition at 0.5 µM lay within 80 to 100%. Moreover, in assay [6], the inhibition at 0.01 µM is -5 to 0% and the inhibition at 0.5 µM fell in the range of 80 to 100%.

`O=C1CCN(N2Cc3cc(CN4CCC(n5cc(NC(=O)c6cnn7ccc(N8C[C@H]9C[C@@H]8CO9)nc67)c(C(F)F)n5)CC4)ccc3C2=O)C(=O)N1` [GT-05028, 5-((1R,4R)-2-oxa-5-azabicyclo[2.2.1]heptan-5-yl)-N-(3-(difluoromethyl)-1-(1-((2-(2,4-dioxotetrahydropyrimidin-1(2H)-yl)-1-oxoisoindolin-5-yl)methyl)piperidin-4-yl)-1H-pyrazol-4-yl)pyrazolo[1,5-a]pyrimidine-3-carboxamide]: the IC50 was 100 to 300 nM in assay [1], 500 to 1000 nM in assay [3], 500 to 1000 nM in assay [4] and 300 to 500 nM in the assay with JEKO-1.

On to `O=C1CCN(N2Cc3cc(CN4CCC(n5cc(NC(=O)c6cnn7ccc(N8CCOCC8)nc67)c(C(F)F)n5)CC4)ccc3C2=O)C(=O)N1` [GT-05749], for which, in assay [5], the inhibition at 0.01 µM is 0 to 10% and the inhibition at 0.5 µM lay within 80 to 100%. In assay [6], the inhibition at 0.01 µM was 7 to 10% and the inhibition at 0.5 µM lay within 60 to 80%.
